Usually Emax stands for the maximal effect, on the per cent scale that the assay sets. As usually defined, the EC50 is the concentration that produces a half-maximal response. Broadly, the Cmax is the maximum level reached in the sampled fluid or tissue. The term Tmax denotes the time from dosing to the highest level. Broadly, the half-life is how long it takes for the measured level to halve.

The source made the active and inactive calls. Numbered stars: 1 amine (or outer) side, 2 acyl side, 3 side chain; on linkers, the order of the positions; unused ones are H or OH. Square brackets hold non-standard residues; d marks the D form. Peptide text beside a SMILES is read from it. * marks the point of attachment. Nva(5-(4-Bn-piperidin-1-yl)) = N[C@@H](CCCN1CCC(Cc2ccccc2)CC1)C(=O)O; X2 = O=C1[C@@H](N[*:1])Cc2ccccc2CN1CCCC(=O)[*:2]; X1 = O=C1[C@@H](N[*:1])Cc2ccccc2CN1CCC(=O)[*:2]; Dmt = Cc1cc(O)cc(C)c1C[C@H](N)C(=O)O; Nicotinoyl = O=C(c1cccnc1)*; dOrn = NCCC[C@@H](N)C(=O)O; dNMeA = CN[C@H](C)C(=O)O

Data set [1] concerns the target T1, Mu-type opioid receptor (Homo sapiens, UniProt P35372). As to the kind of experiment: Agonist activity at human MOP expressed in HEK293 cells coexpressing GloSensor-20F assessed as inhibition of forskolin-induced cAMP accumulation relative to control. Type of data set: functional, cell-based. As to conditions: filed as agonist. (In general: Cyclic AMP is a second messenger, typically raised through Gs and lowered through Gi signalling.)

Data set [2] concerns the target T1, Mu-type opioid receptor. Put plainly: Agonist activity at human Rluc8-tagged MOP expressed in HEK293 cells coexpressing eYFP-tagged beta-arrestin-2 assessed as beta-arrestin-2 recruitment incubated for 5 mins by luminometer analysis relative to control. Type of data set: functional, cell-based. Background: Recruitment of arrestin is a read-out of receptor activation apart from second messengers.

The target of data set [3] is T2, Neuropeptide FF receptor 1 (Homo sapiens, UniProt Q9GZQ6). As to the kind of experiment: Displacement of [125I]-1DMeNPFF from human NPFFR1 expressed in CHO cell membrane at 0.5 uM incubated for 1 hr by Topcount counting method relative to control. The format is cell membranes. (In general: Loss of bound radioactivity is the signal in a displacement assay; it reports binding, not function.)

Data set [4] addresses T2, Neuropeptide FF receptor 1. As to the kind of experiment: Antagonist activity at human NPFFR1 expressed in CHO cell membrane assessed as inhibition of NPVF induced cAMP response at 5 uM incubated for 1 hr by Topcount counting method relative to control. The format is functional, cell membranes. Details: scale not given: the % may be the effect or the level left.
In data set [5] the target is T3, Neuropeptide FF receptor 2 (Homo sapiens, UniProt Q9Y5X5). As to the kind of experiment: Displacement of [125I]-1DMeNPFF from human NPFFR2 expressed in CHO cell membrane at 0.05 uM incubated for 1 hr by Topcount counting method relative to control. Type of data set: cell membranes. As to conditions: filed as antagonist.
Data set [6] deals with T3, Neuropeptide FF receptor 2. Put plainly: Antagonist activity at human NPFFR2 expressed in CHO cell membrane assessed as inhibition of NPVF induced cAMP response at 5 uM incubated for 1 hr by Topcount counting method relative to control. The format is functional, cell membranes. Details: scale not given: the % may be the effect or the level left.
Data set [7] addresses T1, Mu-type opioid receptor. As to the kind of experiment: Agonist activity at human MOP expressed in HEK293 cells coexpressing GloSensor-20F assessed as inhibition of forskolin-induced cAMP accumulation. Type of data set: functional, cell-based.
Data set [8] addresses T1, Mu-type opioid receptor. As to the kind of experiment: Agonist activity at human Rluc8-tagged MOP expressed in HEK293 cells coexpressing eYFP-tagged beta-arrestin-2 assessed as beta-arrestin-2 recruitment incubated for 5 mins by luminometer analysis. Type of data set: functional, cell-based.
Data set [9] deals with Mus musculus. As to the kind of experiment: Antinociceptive activity in mouse at 10 mg/kg, sc administered daily and measured on day 8. Type of data set: functional, organism-based.
The subject of data set [10] is Mus musculus. Put plainly: Antinociceptive activity in mouse assessed as basal nociceptive threshold at 10 mg/kg, sc administered daily and measured on day 2 to 7. Type of data set: functional, organism-based.
Data set [11] in a line: Induction of naltrexone-precipitated withdrawal syndrome in sc dosed C57BL/6N mouse assessed as somatic signs administered for 8 days followed by naltrexone addition on day 9 after 2 hrs post last dose and measured after 30 mins. Type of data set: toxicity, organism-based. As to conditions: in vivo, 216.5 h, time 12990 min.
Data set [12] can be described thus: Induction of naltrexone-precipitated withdrawal syndrome in sc dosed C57BL/6N mouse assessed as vegetative signs administered for 8 days followed by naltrexone addition on day 9 after 2 hrs post last dose and measured after 30 mins. To be noted: in vivo, 216.5 h, time 12990 min. Type of data set: toxicity, organism-based.
Data set [13] can be described thus: Toxicity in sc dosed C57BL/6N mouse assessed as induction of respiratory depression by measuring decrease in pulmonary rate by plethysmography. Type of data set: organism-based. As to conditions: in vivo.
The target of data set [14] is Kappa-type opioid receptor (Homo sapiens, UniProt P41145). As to the kind of experiment: Antagonist activity at human KOR expressed in HEK293 cells assessed as forskolin-induced cAMP accumulation in presence of IBMX. The format is functional, cell-based. As to conditions: filed as antagonist.
The target of data set [15] is Nociceptin receptor (Homo sapiens) (UniProt P41146). Put plainly: Antagonist activity at human NOR expressed in HEK293 cells assessed as forskolin-induced cAMP accumulation in presence of IBMX. Type of data set: functional, cell-based. As to conditions: filed as antagonist.
The nature of data set [16]: Cmax in mouse at 10 mg/kg, sc measured upto 24 hrs by LC-MS/MS analysis. The format is ADME, organism-based. As to conditions: in vivo.
The nature of data set [17]: Tmax in mouse at 10 mg/kg, sc measured upto 24 hrs by LC-MS/MS analysis. Type of data set: ADME, organism-based. To be noted: in vivo.
A short description of data set [18]: Half life in mouse at 10 mg/kg, sc measured upto 24 hrs by LC-MS/MS analysis. Type of data set: ADME, organism-based. To be noted: in vivo.
Data set [19] in a line: Drug concentration in mouse plasma at 10 mg/kg, sc measured after 2 hrs by LC-MS/MS analysis. Type of data set: ADME, organism-based.
Data set [20] has as its system Mus musculus. Put plainly: Antinociceptive activity in mouse at 4.2 umol/kg, sc administered chronically and measured on day 1. The format is functional, organism-based. To be noted: dose 4.2 µmol/kg.
For data set [21], the system named is Mus musculus. Put plainly: Antinociceptive activity in mouse at 4.2 umol/kg, sc administered chronically and measured on day 8. Type of data set: functional, organism-based. As to conditions: dose 4.2 µmol/kg.
Data set [22] has as its system Mus musculus. Put plainly: Antinociceptive activity in mouse at 4.2 umol/kg, sc administered daily and measured on day 1 and 8. Type of data set: functional, organism-based. As to conditions: dose 4.2 µmol/kg.
Data set [23] is described as follows: Induction of naltrexone-precipitated withdrawal syndrome in sc dosed C57BL/6N mouse assessed as paw tremor administered for 8 days followed by naltrexone addition on day 9 after 2 hrs post last dose and measured after 30 mins. Type of data set: toxicity, organism-based. To be noted: in vivo, 216.5 h, time 12990 min.
Data set [24] in a line: Induction of naltrexone-precipitated withdrawal syndrome in sc dosed C57BL/6N mouse assessed as wet dog shake counts administered for 8 days followed by naltrexone addition on day 9 after 2 hrs post last dose and measured after 30 mins. Type of data set: toxicity, organism-based. To be noted: in vivo, 216.5 h, time 12990 min.

T2 sequence (Q9GZQ6 whole entry): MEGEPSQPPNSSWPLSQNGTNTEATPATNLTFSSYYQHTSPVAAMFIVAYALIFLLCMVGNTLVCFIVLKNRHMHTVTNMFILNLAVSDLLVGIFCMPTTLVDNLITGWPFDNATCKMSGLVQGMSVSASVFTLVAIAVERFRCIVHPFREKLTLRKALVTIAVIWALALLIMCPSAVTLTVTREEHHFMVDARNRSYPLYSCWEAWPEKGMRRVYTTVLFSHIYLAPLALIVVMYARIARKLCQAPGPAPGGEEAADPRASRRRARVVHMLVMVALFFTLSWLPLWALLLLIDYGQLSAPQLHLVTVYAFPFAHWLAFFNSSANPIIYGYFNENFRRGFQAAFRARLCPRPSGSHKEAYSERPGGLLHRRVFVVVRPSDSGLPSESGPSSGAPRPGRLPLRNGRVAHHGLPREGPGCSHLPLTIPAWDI
T3 sequence (Q9Y5X5 whole entry): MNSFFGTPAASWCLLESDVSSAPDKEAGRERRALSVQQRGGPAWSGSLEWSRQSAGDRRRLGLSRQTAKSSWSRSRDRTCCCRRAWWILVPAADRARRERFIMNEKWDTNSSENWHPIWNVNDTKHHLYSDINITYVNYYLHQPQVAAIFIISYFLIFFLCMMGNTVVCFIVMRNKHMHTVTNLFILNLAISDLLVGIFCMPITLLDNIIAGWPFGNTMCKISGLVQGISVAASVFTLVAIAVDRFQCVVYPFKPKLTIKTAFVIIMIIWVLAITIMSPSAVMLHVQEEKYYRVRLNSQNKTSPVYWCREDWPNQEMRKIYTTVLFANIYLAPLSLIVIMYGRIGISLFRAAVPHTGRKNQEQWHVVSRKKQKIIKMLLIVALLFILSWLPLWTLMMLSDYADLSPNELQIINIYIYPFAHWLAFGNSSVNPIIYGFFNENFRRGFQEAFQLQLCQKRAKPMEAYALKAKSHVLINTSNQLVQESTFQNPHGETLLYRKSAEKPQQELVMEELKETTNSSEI
T1 sequence (P35372 whole entry): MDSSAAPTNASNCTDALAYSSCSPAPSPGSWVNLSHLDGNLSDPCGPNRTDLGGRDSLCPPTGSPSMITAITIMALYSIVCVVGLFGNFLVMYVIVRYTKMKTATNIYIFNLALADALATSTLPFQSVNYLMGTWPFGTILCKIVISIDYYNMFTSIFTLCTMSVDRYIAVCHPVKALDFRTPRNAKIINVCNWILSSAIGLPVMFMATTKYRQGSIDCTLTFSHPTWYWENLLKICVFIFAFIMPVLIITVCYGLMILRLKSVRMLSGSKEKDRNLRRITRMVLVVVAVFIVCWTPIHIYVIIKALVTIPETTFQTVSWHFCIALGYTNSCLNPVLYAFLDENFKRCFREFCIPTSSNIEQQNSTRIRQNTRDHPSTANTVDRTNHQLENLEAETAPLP
Sequence of Kappa-type opioid receptor (P41145 whole entry): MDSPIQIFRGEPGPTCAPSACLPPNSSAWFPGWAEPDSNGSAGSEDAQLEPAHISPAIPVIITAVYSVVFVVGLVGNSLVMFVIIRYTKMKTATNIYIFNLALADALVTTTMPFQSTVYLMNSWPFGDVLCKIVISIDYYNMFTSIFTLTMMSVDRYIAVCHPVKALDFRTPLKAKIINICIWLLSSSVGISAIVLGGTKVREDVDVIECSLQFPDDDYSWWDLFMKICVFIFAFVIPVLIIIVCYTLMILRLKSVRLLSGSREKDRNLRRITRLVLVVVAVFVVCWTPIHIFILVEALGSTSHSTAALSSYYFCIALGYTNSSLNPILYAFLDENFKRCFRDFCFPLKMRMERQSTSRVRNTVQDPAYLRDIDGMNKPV
Sequence of Nociceptin receptor (Homo sapiens) (P41146 whole entry): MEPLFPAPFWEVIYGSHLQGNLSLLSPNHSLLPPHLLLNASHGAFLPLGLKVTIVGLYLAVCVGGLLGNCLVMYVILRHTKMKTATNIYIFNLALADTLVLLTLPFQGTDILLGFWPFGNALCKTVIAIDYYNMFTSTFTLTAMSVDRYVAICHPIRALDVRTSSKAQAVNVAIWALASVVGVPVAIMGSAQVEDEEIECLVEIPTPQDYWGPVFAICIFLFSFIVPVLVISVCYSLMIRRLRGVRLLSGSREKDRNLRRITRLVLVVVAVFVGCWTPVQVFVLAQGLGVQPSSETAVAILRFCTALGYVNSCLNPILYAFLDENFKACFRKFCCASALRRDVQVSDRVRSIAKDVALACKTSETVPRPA

As for `Cc1cc(O)cc(C)c1C[C@H](N)C(=O)N(C)[C@H](C)C(=O)N[C@H]1Cc2ccccc2CN(CCC(=O)N[C@@H](CCCN2CCC(Cc3ccccc3)CC2)C(=O)N[C@@H](Cc2ccccc2)C(N)=O)C1=O` (H-[Dmt][dNMeA][X1][Nva(5-(4-Bn-piperidin-1-yl))]F-NH2), the Emax came out at 64% in data set [1] and 12% in data set [2]. The Activity worked out at 43% in [3] (filed as antagonist), 75% in data set [4] (filed as antagonist), 48% in data set [5] and 45% in data set [6] (filed as antagonist).

For `Cc1cc(O)cc(C)c1C[C@H](N)C(=O)N[C@H](CCCNC(=N)N)C(=O)N[C@H]1Cc2c(ccc3ccccc23)CN(CC(=O)N[C@@H](CCCN2CCC(Cc3ccccc3)CC2)C(=O)N[C@@H](Cc2c[nH]c3ccccc23)C(N)=O)C1=O`, the EC50 was 10.5 nM in data set [7] and “Not Active” in [8] (hek293). The Emax in data set [1] was determined as 65%. Moreover, the Activity in [3] (filed as antagonist) worked out at 68%; in [4] (filed as antagonist), 62%; in data set [5] it was 84%; in [6] (filed as antagonist) it was 83%.

On to `COc1ccsc1CNCC[C@@]1(c2ccccn2)CCOC2(CCCC2)C1` [OLICERIDINE], for which the outcome in data set [9] and in data set [10] was inactive. Moreover, the Activity result in [11] is “Toxic”; in [12], “Toxic”; in data set [13], “Dose-Dependent Effect”.

`Cc1cc(O)cc(C)c1C[C@H](N)C(=O)N[C@H](CCCN)C(=O)N[C@H]1Cc2ccccc2CN(CCC(=O)N[C@@H](CCCN2CCC(Cc3ccccc3)CC2)C(=O)N[C@@H](Cc2ccccc2)C(N)=O)C1=O` (H-[Dmt][dOrn][X1][Nva(5-(4-Bn-piperidin-1-yl))]F-NH2): the EC50 in data set [7] was determined as 34 nM; in data set [8] (read-out: EC50), 2350 nM. Further, the Emax turned out to be 78% in [1] and 20% in data set [2]. Also, the Activity in data set [3] (filed as antagonist) came out at 45%; in data set [4], 22%; in data set [5], 55%; in [6], 37%.

Consider `Cc1cc(O)cc(C)c1C[C@H](N)C(=O)N(C)[C@H](C)C(=O)N[C@H]1Cc2ccccc2CN(CCCC(=O)N[C@@H](CCCN2CCC(Cc3ccccc3)CC2)C(=O)N[C@@H](Cc2ccccc2)C(N)=O)C1=O` (H-[Dmt][dNMeA][X2][Nva(5-(4-Bn-piperidin-1-yl))]F-NH2), for which the concentration for a half-maximal effect (EC50) is 10.6 nM in [7] and “Not Active” in data set [8] (hek293). The Emax in [1] amounted to 66%. Besides, the Activity in data set [3] (filed as antagonist) stood at 57%; in data set [4] it was 12%; in [5], 65%; in data set [6] (filed as antagonist), 49%.

As to `Cc1cc(O)cc(C)c1C[C@H](N)C(=O)N[C@H](CCCNC(=N)N)C(=O)N[C@H]1Cc2ccccc2CN(CCC(=O)N[C@@H](CCCN2CCC(Cc3ccccc3)CC2)C(=O)N[C@@H](Cc2ccccc2)C(N)=O)C1=O`, the values for the EC50 in data set [7] and in data set [8] (read-out: EC50) were 9.3 nM and 125 nM, respectively. Moreover, the maximum response (Emax) in data set [1] amounted to 91%; in data set [2] (filed as agonist), 42%. Moreover, the Activity in data set [3] (filed as antagonist) was 80%; in data set [4] (filed as antagonist), 62%; in data set [5], 83%; in data set [6] (filed as antagonist), 54%; in data set [23], “Non-Toxic”; in data set [24], “Non-Toxic”. In addition, the outcome in [14], in data set [15], in data set [20] and in [22] was Active. Also, the highest level in data set [16] (Cmax) was 984 nM. Further, the time to peak (Tmax) in [17] was determined as 2.67 h. Moreover, the half-life in data set [18] was 3.08 h. The same molecule registered a concentration at 2 h in data set [19] of 937 nM. Moreover, in data set [21], the result was inactive.

Take `Cc1cc(O)cc(C)c1C[C@H](N)C(=O)N[C@H](CCCNC(=N)N)C(=O)N[C@H]1Cc2c(ccc3ccccc23)CN(CC(=O)N[C@@H](CCCN2CCC(Cc3ccccc3)CC2)C(=O)N[C@H](C(N)=O)C(C)C)C1=O`: the Emax in data set [1] is 102%; in data set [2], 22%. In addition, the Activity in data set [3] (filed as antagonist) amounted to 87%; in data set [4] (filed as antagonist), 51%; in data set [5], 77%; in data set [6] (filed as antagonist), 77%.

As for `Cc1cc(O)cc(C)c1C[C@H](N)C(=O)N[C@H](CCCNC(=N)N)C(=O)N[C@H]1Cc2c(ccc3ccccc23)CN(CC(=O)N[C@@H](CCCN2CCC(Cc3ccccc3)CC2)C(=O)N[C@@H](Cc2ccccc2)C(N)=O)C1=O`, the Emax in data set [1] was 90%; in data set [2] it was 22%. Besides, the Activity is 35% in data set [3], 22% in data set [4], 96% in data set [5] and 91% in data set [6] (filed as antagonist).

For the molecule `Cc1cc(O)cc(C)c1C[C@H](N)C(=O)N[C@H](CCCCNC(=O)c1cccnc1)C(=O)N[C@H]1Cc2ccccc2CN(CCC(=O)N[C@@H](CCCN2CCC(Cc3ccccc3)CC2)C(=O)N[C@@H](Cc2ccccc2)C(N)=O)C1=O` (H-[Dmt][dK](Nicotinoyl)[X1][Nva(5-(4-Bn-piperidin-1-yl))]F-NH2), the Emax came to 92% in [1] and 16% in data set [2]. Besides, the EC50 in data set [8] (read-out: EC50) was found to be 12 nM. Also, the Activity in data set [3] (filed as antagonist) stood at 74%; in [4], 33%; in [5] it was 70%; in data set [6] (filed as antagonist), 59%.

As for `Cc1cc(O)cc(C)c1C[C@H](N)C(=O)N[C@H](CCCNC(=N)N)C(=O)N[C@H]1Cc2ccccc2CN(CC(=O)N[C@@H](CCCN2CCC(Cc3ccccc3)CC2)C(=O)N[C@@H](Cc2ccccc2)C(N)=O)C1=O`, the values for the EC50 in data set [7] and in data set [8] (read-out: EC50) were 11.3 nM and 704 nM, respectively. Also, the figures for the maximal response (Emax) in [1] and in data set [2] were 76% and 18%, respectively.
